Measured values taken from PubChem BioAssay AID332 (DTP/NCI, 2004).
“And” between values parts separate entries of the source, which are not always exact repeats. Identical values can stand only once. Results filed as inconclusive are left out.

Test system: mice, ADJ-PC-20 plasma cell tumor sc, T/C %
Assay: NCI In Vivo Anticancer Drug Screen. Data for tumor model ADJ-PC-20 Plasma Cell (subcutaneous) in unknown mice
Conditions: endpoint: mean tumor weight, higher = larger tumour
Description: The antitumor activity of compounds was measured in mice bearing transplantable tumors. Survival or tumor size were measured and the results are expressed as the measurement made in the treated group (T) divided by the measurement made in the vehicle treated control group (C). The tumor model used in this assay is ADJ-PC-20 Plasma Cell (subcutaneous) in unknown mice

[1] = dose: 12.5 mg/kg/injection, schedule: Q01DX010 (ip), vehicle: carboxymethylcellulose (CMC)
[2] = dose: 25.0 mg/kg/injection, schedule: Q01DX010 (ip), vehicle: carboxymethylcellulose (CMC)
[3] = dose: 37.5 mg/kg/injection, schedule: Q01DX010 (ip), vehicle: carboxymethylcellulose (CMC)
[4] = dose: 7.5 mg/kg/injection, schedule: Q01DX010 (ip), vehicle: carboxymethylcellulose (CMC)
[5] = dose: 50.0 mg/kg/injection, schedule: Q01DX010 (ip), vehicle: carboxymethylcellulose (CMC)

For `C[n+]1c2ccccc2nc2c(N)cc(N)cc21`, the T/C (dose: 6.25 mg/kg/injection, schedule: Q01DX010 (ip), vehicle: carboxymethylcellulose (CMC)) was 92 % of control, the T/C [1] was 114 % of control and the T/C [2] was 99 % of control.

For `O=C(Nc1ccc(C2=NCCCN2)cc1)c1ccc(C(=O)Nc2ccc(C3=NCCCN3)cc2)cc1`, the T/C (dose: 0.05 mg/kg/injection, schedule: Q01DX010 (ip), vehicle: water) was 90 % of control, the T/C (dose: 0.1 mg/kg/injection, schedule: Q01DX010 (ip), vehicle: water) was 83 % of control and the T/C (dose: 0.2 mg/kg/injection, schedule: Q01DX010 (ip), vehicle: water) was 109 % of control. For the same compound, the T/C (dose: 0.4 mg/kg/injection, schedule: Q01DX010 (ip), vehicle: water) was 91 % of control and 92 % of control and the T/C (dose: 3.12 mg/kg/injection, schedule: Q01DX010 (ip), vehicle: saline) was 65 % of control.

In the case of `CCC(=O)O[C@H]1CC[C@H]2[C@@H]3CCC4=CC(=O)CC[C@]4(C)[C@H]3CC[C@]12C`, the T/C (dose: 125.0 mg/kg/injection, schedule: Q01DX010 (sc), vehicle: steriod suspending solution) is reported as 79 % of control, the T/C (dose: 250.0 mg/kg/injection, schedule: Q01DX010 (sc), vehicle: steriod suspending solution) is reported as 154 % of control and the T/C (dose: 500.0 mg/kg/injection, schedule: Q01DX010 (sc), vehicle: steriod suspending solution) is reported as 76 % of control. The T/C (dose: 1000.0 mg/kg/injection, schedule: Q01DX010 (sc), vehicle: steriod suspending solution) was 108 % of control and the T/C (dose: 2000.0 mg/kg/injection, schedule: Q01DX010 (sc), vehicle: steriod suspending solution) was 80 % of control.

With `O=C(Nc1ccc(C2=NCCN2)cc1)c1cccc(C(=O)Nc2ccc(C3=NCCN3)cc2)c1` the T/C (dose: 9.4 mg/kg/injection, schedule: Q01DX010 (ip), vehicle: carboxymethylcellulose (CMC)) was 154 % of control, the T/C (dose: 18.8 mg/kg/injection, schedule: Q01DX010 (ip), vehicle: carboxymethylcellulose (CMC)) was 214 % of control and the T/C [3] was 187 % of control.

For `O=P1(N(CCCl)CCCl)NCCCO1` (stereo not given), the T/C (dose: 3.2 mg/kg/injection, schedule: Q01DX010 (ip), vehicle: saline) was 21 % of control and the T/C (dose: 6.25 mg/kg/injection, schedule: Q01DX010 (ip), vehicle: saline) was 7 % of control.

In the case of `N#Cc1cn(C2OC(CO)C(O)C2O)c2ncnc(N)c12` (stereo not given), the T/C (dose: 0.12 mg/kg/injection, schedule: Q01DX010 (ip), vehicle: carboxymethylcellulose (CMC)) is reported as 47 % of control.

For `Nc1nc(=S)c2ncn(C3OC(CO)C(O)C3O)c2[nH]1` (stereo not given), the T/C (dose: 0.31 mg/kg/injection, schedule: Q01DX010 (ip), vehicle: carboxymethylcellulose (CMC)) was 63 % of control, the T/C (dose: 0.63 mg/kg/injection, schedule: Q01DX010 (ip), vehicle: carboxymethylcellulose (CMC)) was 31 % of control and the T/C (dose: 1.25 mg/kg/injection, schedule: Q01DX010 (ip), vehicle: carboxymethylcellulose (CMC)) was 7 % of control. The T/C (dose: 2.5 mg/kg/injection, schedule: Q01DX010 (ip), vehicle: carboxymethylcellulose (CMC)) was 1 % of control.

In the case of `C[C@]12CCC(=O)C=C1CC[C@H]1[C@@H]3CC[C@](O)(C(=O)CO)[C@@]3(C)C[C@H](O)[C@@]12F`, the T/C (dose: 2.5 mg/kg/injection, schedule: Q01DX010 (sc), vehicle: steriod suspending solution) is reported as 62 % of control, the T/C (dose: 5.0 mg/kg/injection, schedule: Q01DX010 (sc), vehicle: steriod suspending solution) is reported as 43 % of control and the T/C (dose: 10.0 mg/kg/injection, schedule: Q01DX010 (sc), vehicle: steriod suspending solution) is reported as 33 % of control.

For `CCCNc1ncnc2[nH]ncc12`, the T/C (dose: 5.0 mg/kg/injection, schedule: Q01DX010 (ip), vehicle: water) was 97 % of control, the T/C (dose: 10.0 mg/kg/injection, schedule: Q01DX010 (ip), vehicle: water) was 86 % of control and the T/C (dose: 20.0 mg/kg/injection, schedule: Q01DX010 (ip), vehicle: water) was 95 % of control.

`Cc1cc(N(CCCl)CCCl)ccc1N=Nc1ccccc1C(=O)O` was tested, and the T/C (dose: 0.95 mg/kg/injection, schedule: Q01DX010 (ip), vehicle: carboxymethylcellulose (CMC)) was 60 % of control, the T/C (dose: 1.9 mg/kg/injection, schedule: Q01DX010 (ip), vehicle: carboxymethylcellulose (CMC)) was 56 % of control and the T/C (dose: 3.8 mg/kg/injection, schedule: Q01DX010 (ip), vehicle: carboxymethylcellulose (CMC)) was 38 % of control. The T/C [4] was 25 % of control.

In the case of `CS(=O)(=O)OCC(O)C(O)COS(C)(=O)=O` (stereo not given), the T/C (dose: 99.0 mg/kg/injection, schedule: Q01DX010 (ip), vehicle: saline) is reported as 78 % of control, the T/C (dose: 188.0 mg/kg/injection, schedule: Q01DX010 (ip), vehicle: saline) is reported as 53 % of control and the T/C (dose: 375.0 mg/kg/injection, schedule: Q01DX010 (ip), vehicle: saline) is reported as 58 % of control. The T/C (dose: 750.0 mg/kg/injection, schedule: Q01DX010 (ip), vehicle: saline) was 7 % of control.

With `COC1=C(N)C(=O)c2nc(-c3nc(C(=O)O)c(C)c(-c4ccc(OC)c(OC)c4O)c3N)ccc2C1=O` the T/C (dose: 0.02 mg/kg/injection, schedule: Q01DX010 (ip), vehicle: other) was 97 % of control, the T/C (dose: 0.04 mg/kg/injection, schedule: Q01DX010 (ip), vehicle: other) was 66 % of control and the T/C (dose: 0.08 mg/kg/injection, schedule: Q01DX010 (ip), vehicle: other) was 71 % of control. The T/C (dose: 0.17 mg/kg/injection, schedule: Q01DX010 (ip), vehicle: other) was 44 % of control and the T/C (dose: 0.34 mg/kg/injection, schedule: Q01DX010 (ip), vehicle: other) was 13 % of control.

In the case of `O=C1CCC(N2C(=O)c3ccccc3C2=O)C(=O)N1` (stereo not given), the T/C (dose: 18.75 mg/kg/injection, schedule: Q01DX010 (ip), vehicle: carboxymethylcellulose (CMC)) is reported as 55 % of control, the T/C [3] is reported as 104 % of control and the T/C (dose: 75.0 mg/kg/injection, schedule: Q01DX010 (ip), vehicle: carboxymethylcellulose (CMC)) is reported as 107 % of control. The T/C (dose: 150.0 mg/kg/injection, schedule: Q01DX010 (ip), vehicle: carboxymethylcellulose (CMC)) was 82 % of control and 99 % of control, the T/C (dose: 300.0 mg/kg/injection, schedule: Q01DX010 (ip), vehicle: carboxymethylcellulose (CMC)) was 107 % of control and 113 % of control and the T/C (dose: 600.0 mg/kg/injection, schedule: Q01DX010 (ip), vehicle: carboxymethylcellulose (CMC)) was 82 % of control.

For `CCCCNc1ncnc2c1cnn2C`, the T/C (dose: 3.1 mg/kg/injection, schedule: Q01DX010 (ip), vehicle: carboxymethylcellulose (CMC)) was 94 % of control, the T/C [1] was 122 % of control and the T/C [2] was 96 % of control. For the same compound, the T/C [5] was 109 % of control.

In the case of `O=NN(CCCl)C(=O)NCCCl`, the T/C (dose: 0.8 mg/kg/injection, schedule: Q01DX010 (ip), vehicle: saline) is reported as 102 % of control, the T/C (dose: 1.6 mg/kg/injection, schedule: Q01DX010 (ip), vehicle: saline) is reported as 87 % of control and the T/C (dose: 6.2 mg/kg/injection, schedule: Q01DX010 (ip), vehicle: saline) is reported as 48 % of control.

With `Cn1c(N)nc2nc[nH]c2c1=S` the T/C (dose: 6.3 mg/kg/injection, schedule: Q01DX010 (ip), vehicle: carboxymethylcellulose (CMC)) was 118 % of control, the T/C [1] was 105 % of control and the T/C [2] was 116 % of control. For the same compound, the T/C [5] was 98 % of control and the T/C (dose: 100.0 mg/kg/injection, schedule: Q01DX010 (ip), vehicle: carboxymethylcellulose (CMC)) was 76 % of control.

In the case of `CCCCCCCCCCCCNCCCCCCCCCCCC`, the T/C (dose: 0.9 mg/kg/injection, schedule: Q01DX010 (ip), vehicle: carboxymethylcellulose (CMC)) is reported as 109 % of control, the T/C (dose: 1.8 mg/kg/injection, schedule: Q01DX010 (ip), vehicle: carboxymethylcellulose (CMC)) is reported as 109 % of control and the T/C (dose: 3.7 mg/kg/injection, schedule: Q01DX010 (ip), vehicle: carboxymethylcellulose (CMC)) is reported as 98 % of control. The T/C [4] was 88 % of control and 110 % of control.

For `CCn1cnc2c(=S)nc[nH]c21`, the T/C (dose: 1.0 mg/kg/injection, schedule: Q01DX010 (ip), vehicle: carboxymethylcellulose (CMC)) was 71 % of control, the T/C (dose: 2.0 mg/kg/injection, schedule: Q01DX010 (ip), vehicle: carboxymethylcellulose (CMC)) was 48 % of control and the T/C (dose: 4.0 mg/kg/injection, schedule: Q01DX010 (ip), vehicle: carboxymethylcellulose (CMC)) was 11 % of control. For the same compound, the T/C (dose: 8.0 mg/kg/injection, schedule: Q01DX010 (ip), vehicle: carboxymethylcellulose (CMC)) was 2 % of control.

`Oc1cc(CN(CCCl)CCCl)c(O)cc1CN(CCCl)CCCl` was tested, and the T/C (dose: 0.22 mg/kg/injection, schedule: Q01DX010 (sc), vehicle: steriod suspending solution) was 62 % of control, the T/C (dose: 0.45 mg/kg/injection, schedule: Q01DX010 (sc), vehicle: steriod suspending solution) was 69 % of control and the T/C (dose: 0.9 mg/kg/injection, schedule: Q01DX010 (sc), vehicle: steriod suspending solution) was 76 % of control. The T/C (dose: 1.8 mg/kg/injection, schedule: Q01DX010 (sc), vehicle: steriod suspending solution) was 28 % of control.

With `C[C@]12C=CC(=O)C=C1CC[C@@H]1[C@@H]2C(=O)C[C@@]2(C)[C@H]1CC[C@]2(O)C(=O)CO` the T/C (dose: 6.3 mg/kg/injection, schedule: Q01DX010 (sc), vehicle: steriod suspending solution) was 107 % of control, the T/C (dose: 12.5 mg/kg/injection, schedule: Q01DX010 (sc), vehicle: steriod suspending solution) was 51 % of control and the T/C (dose: 100.0 mg/kg/injection, schedule: Q01DX010 (sc), vehicle: steriod suspending solution) was 14 % of control.
